Assay: Measurement of Log P values by HPLC on reversed phase columns (EEC directive 79/831 Annex V.A8)
Type: physicochemical
Description: Measurement of Log P values as provided herein was performed according to EEC directive 79/831 Annex V.A8 by HPLC (High Performance Liquid Chromatography) on reversed phase columns with the following methods: • ^[a] Log P value is determined by measurement of LC-UV, in an acidic range, with 0.1% formic acid in water and acetonitrile as eluent (linear gradient from 10% acetonitrile to 95% acetonitrile). • ^[b] Log P value is determined by measurement of LC-UV, in a neutral range, with 0.001 molar ammonium acetate solution in water and acetonitrile as eluent (linear gradient from 10% acetonitrile to 95% acetonitrile). • ^[c] Log P value is determined by measurement of LC-UV, in an acidic range, with 0.1% phosphoric acid and acetonitrile as eluent (linear gradient from 10% acetonitrile to 95% acetonitrile).
If more than one Log P value is available within the same method, all the values are given and separated by “+”. […]

[1] = method [a]: LC-UV, acidic range, 0.1% formic acid in water and acetonitrile as eluent
[2] = method [b]: LC-UV, neutral range, 0.001 molar ammonium acetate solution in water and acetonitrile as eluent

Row | Compound | chromatographic logP [1] | chromatographic logP [2]
1 | Cc1ccc(C[C@H](CON2C(=O)c3ccccc3C2=O)NC(=O)c2c(Oc3cccc(C4CC4)c3F)cnc3ccccc23)c(C)c1 (racemic) [Compound 3-04] | 4.96 | –
2 | Cc1ccc(C[C@@H]2CON=C(c3c(Oc4cccc(C(F)(F)F)c4)nnc4c3CCC4)N2)c(C)c1 (racemic) [Compound I-027] | 3.87 | –
3 | Cc1ccc(C[C@H](CON)NC(=O)c2c(Oc3cccc(Cl)c3F)nnc3c2CCCC3)c(C)c1 (racemic) [Compound 4-11] | 2.7 | –
4 | Cc1ccc(C[C@H](CON)NC(=O)c2c(Oc3cccc(C4CC4)c3F)cnc3ccccc23)c(C)c1 (racemic) [Compound 4-05] | 3.31 | –
5 | Cc1ccc(C[C@@H]2CON=C(c3c(Oc4cccc(C(F)F)c4)cnc4ccccc34)N2)c(Cl)c1 (racemic) [Compound I-031] | 3.98 | –
6 | C#Cc1cccc(Oc2cnc3ccccc3c2C(=O)N[C@@H](CON2C(=O)c3ccccc3C2=O)Cc2ccc(C)cc2Cl)c1 (racemic) [Compound 3-07] | 4.47 | –
7 | O=C(O)c1c(Oc2cccc(C(F)(F)F)c2)nnc2c1CCC2 [Compound 1-23] | 1.75 | 0.44
8 | Cc1ccc(C[C@H](CCl)NC(=O)c2c(Oc3cccc(C(F)F)c3)cnc3ccccc23)c(Cl)c1 (racemic) [Compound 10-05] | 4.33 | –
9 | C#Cc1cccc(Oc2cnc3ccccc3c2C2=NOC[C@@H](Cc3ccc(C)cc3Cl)N2)c1 (racemic) [Compound I-025] | 3.91 | –
10 | Cc1ccc(C[C@H](CON)NC(=O)c2c(Oc3cccc(Br)c3F)nnc3c2CCCC3)c(C)c1 (racemic) [Compound 4-12] | 2.75 | –
11 | Cc1ccc(CC(CCl)NC(=O)c2c(Oc3cccc(C4CC4)c3F)nnc3ccccc23)c(C)c1 (racemic) [Compound 10-01, N-[(2RS)-1-chloro-3-(2,4-dimethylphenyl)propan-2-yl]-3-(3-cyclopropyl-2-fluorophenoxy)cinnoline-4-carboxamide] | 4.73 | –
12 | Cc1ccc(C[C@H](CON2C(=O)c3ccccc3C2=O)NC(=O)c2c(Oc3cccc(C(F)(F)F)c3)cnc3ccccc23)c(C)c1 (racemic) [Compound 3-02] | 4.72 | –
13 | C#Cc1cccc(Oc2cnc3ccccc3c2C(=O)N[C@@H](CON)Cc2ccc(C)cc2Cl)c1 (racemic) [Compound 4-08] | 2.87 | –
14 | Cc1ccc(C[C@@H]2CON=C(c3c(Oc4cccc(C(F)F)c4)nnc4c3CCCC4)N2)c(C)c1 (racemic) [Compound I-028] | 3.6 | –
15 | C=Cc1cccc(Oc2cnc3ccccc3c2C(=O)N[C@@H](CON2C(=O)c3ccccc3C2=O)Cc2ccc(C)cc2C)c1 (racemic) [Compound 3-05] | 4.78 | –
16 | Cc1ccc(C[C@@H]2CON=C(c3c(Br)cnc4nccnc34)N2)c(C)c1 (racemic) [Compound 7-01] | 2.41 | –
17 | C=Cc1cccc(Oc2cnc3ccccc3c2C(=O)N[C@@H](CON)Cc2ccc(C)cc2Cl)c1 (racemic) [Compound 4-09] | 3.12 | –
18 | Cc1ccc(C[C@H](CON2C(=O)c3ccccc3C2=O)NC(=O)c2c(Oc3cccc(Br)c3F)nnc3c2CCCC3)c(C)c1 (racemic) [Compound 3-11] | 4.51 | –
19 | CCOC(=O)c1c(Oc2cccc(C(F)(F)F)c2)nnc2c1CCC2 [Compound 1-22] | 3.5 | 3.35
20 | Cc1ccc(C[C@H](CON)NC(=O)c2c(Oc3cccc(C(F)F)c3)nnc3c2CCCC3)c(C)c1 (racemic) [Compound 4-14] | 2.55 | –

Row | Compound | chromatographic logP [1] | chromatographic logP [2]
21 | C=Cc1cccc(Oc2cnc3ccccc3c2C2=NOC[C@@H](Cc3ccc(C)cc3Cl)N2)c1 (racemic) [Compound I-026] | 4.19 | –
22 | Cc1ccc(C[C@@H]2CON=C(c3c(Oc4cccc(C5CC5)c4F)cnc4ccccc34)N2)c(Cl)c1 (racemic) [Compound I-021] | 4.55 | –
23 | Cc1ccc(C[C@H](CON2C(=O)c3ccccc3C2=O)NC(=O)c2c(Oc3cccc(Cl)c3F)nnc3c2CCCC3)c(C)c1 (racemic) [Compound 3-10] | 4.47 | –
24 | C=Cc1cccc(Oc2cnc3ccccc3c2C(=O)N[C@@H](CON)Cc2ccc(C)cc2C)c1 (racemic) [Compound 4-06] | 3.09 | –
25 | Cc1ccc(C[C@H](CCl)NC(=NO)c2c(Oc3cccc(C(F)(F)F)c3)cnc3ccoc23)c(C)c1 (racemic) [Compound 12-05] | 4.4 | –
26 | Cc1ccc(C[C@@H]2CON=C(c3c(Oc4cccc(C5CC5)c4F)nnc4c3CCC4)N2)c(C)c1 (racemic) [Compound I-029] | 4.13 | –
27 | Cc1ccc(C[C@@H]2CON=C(c3c(Oc4cccc(C(F)(F)F)c4)nnc4c3CCCC4)N2)c(C)c1 (racemic) [Compound I-022] | 3.99 | –
28 | C=Cc1cccc(Oc2cnc3ccccc3c2C(=O)N[C@@H](CON2C(=O)c3ccccc3C2=O)Cc2ccc(C)cc2Cl)c1 (racemic) [Compound 3-08] | 4.71 | –
29 | Cc1ccc(C[C@H](CCl)NC(=NO)c2c(Br)cnc3nccnc23)c(C)c1 (racemic) [Compound 15-01] | 2.73 | –
30 | Cc1ccc(C[C@H](CON2C(=O)c3ccccc3C2=O)NC(=O)c2c(Oc3cccc(C(F)(F)F)c3)nnc3c2CCC3)c(C)c1 (racemic) [Compound 3-12] | 4.47 | –
31 | Cc1ccc(C[C@H](CON2C(=O)c3ccccc3C2=O)NC(=O)c2c(Oc3cccc(Br)c3F)cnc3ccccc23)c(C)c1 (racemic) [Compound 3-06] | 4.78 | –
32 | Cc1ccc(C[C@H](CON2C(=O)c3ccccc3C2=O)NC(=O)c2c(Oc3cccc(C4CC4)c3F)nnc3c2CCC3)c(C)c1 (racemic) [Compound 3-14] | 4.56 | –
33 | Cc1ccc(CC(CCl)NC(=O)c2c(Oc3cccc(C(F)(F)F)c3)cnc3ccccc23)c(C)c1 (racemic) [Compound 10-02, N-[(2RS)-1-chloro-3-(2,4-dimethylphenyl)propan-2-yl]-3-[3-(trifluoro-methyl)phenoxy]quinoline-4-carboxamide] | 4.81 | –
34 | Cc1ccc(C[C@H](CCl)NC(=NO)c2c(Oc3cccc(Br)c3F)cnc3ccccc23)c(Cl)c1 (racemic) [Compound 12-03] | 4.62 | –
35 | Cc1ccc(C[C@H](CCl)NC(=NO)c2c(Oc3cccc(C4CC4)c3F)cnc3ccccc23)c(Cl)c1 (racemic) [Compound 12-02] | 4.93 | –
36 | Cc1ccc(C[C@@H]2CON=C(c3c(Oc4cccc(Cl)c4F)nnc4c3CCCC4)N2)c(C)c1 (racemic) [Compound I-023] | 3.91 | –
37 | Cc1ccc(CC(CON)NC(=O)c2c(Oc3cccc(Cl)c3)nnc3ccccc23)c(C)c1 (racemic) [Compound 4-03, N-[(2RS)-1-(aminooxy)-3-(2,4-dimethylphenyl)propan-2-yl]-3-(3-chloro-phenoxy)cinnoline-4-carboxamide] | 2.8 | –
38 | Cc1ccc(CC(CON2C(=O)c3ccccc3C2=O)NC(=O)c2c(Oc3cccc(Cl)c3)nnc3ccccc23)c(C)c1 (racemic) [Compound 3-01, 3-(3-chlorophenoxy)-N-{(2RS)-1-(2,4-dimethylphenyl)-3-[(1,3-dioxo-1,3-dihydro-2H-isoindol-2-yl)oxy]propan-2-yl}cinnoline-4-carboxamide] | 4.49 | –
39 | Cc1ccc(C[C@H](CON)NC(=O)c2c(Oc3cccc(C(F)(F)F)c3)nnc3c2CCCC3)c(C)c1 (racemic) [Compound 4-10] | 2.91 | –

Source: US12673942B2, “Azabicyclyl-substituted heterocycles as fungicides” (Bayer Aktiengesellschaft, priority 2020, dated 2026)
